In patent US20150118231A1, “APOE4 ANTIBODIES FOR TREATMENT OF NEURODEGENERATIVE CONDITIONS” (RAMOT AT TEL-AVIV UNIVERSITY LTD., priority 2012, published 2015):

Tests used:
mouse model of AD = conditions: oral administration; cited from earlier work
apoE3 and apoE4 mice [1] = assay: Bexarotene by gavage: object recognition test; conditions: 100 mg per kg per day by gavage; apoE4 mice prefer the novel object, similarly to apoE3 mice
apoE3 and apoE4 mice [2] = assay: Bexarotene by gavage: fear conditioning test; assay type: in vivo; conditions: 100 mg per kg per day by gavage; mild electric shock
apoE3 and apoE4 mice [3] = assay: Bexarotene by gavage: Morris swim test; assay type: in vivo; conditions: 100 mg per kg per day by gavage
From the text: Next, the mice were further investigated following removal of the platform from the water arena.

C=C(c1ccc(C(=O)O)cc1)c1cc2c(cc1C)C(C)(C)CCC2(C)C [Bexarotene]
apoE synthesis (mouse model of AD): enhanced | clearance of soluble Aβ (mouse model of AD): within hours | cognitive deficits (mouse model of AD): rapid reversal | neural circuit function (mouse model of AD): improved | time to reduced Aβ plaque area (mouse model of AD): ≤ 72 h | object recognition impairment in apoE4 mice (time spent near the novel object) (apoE3 and apoE4 mice [1]): reversed | fear conditioning, freezing time: difference between apoE3 and apoE4 mice (apoE3 and apoE4 mice [2]): abolished | Morris swim test, time to reach the platform, apoE4 mice (apoE3 and apoE4 mice [3]; days 1-4, rendered similar to apoE3 mice): improves | Morris swim test, time searching for the missing platform: difference between apoE3 and apoE4 mice (apoE3 and apoE4 mice [3]; platform removed): abolished
